Here are results for 7 compounds from patent publication US20240158391A1, “DERIVATIVES OF 4-(IMIDAZO[1,2-A]PYRIDIN-3-YL)-N-(PYRIDIN-3-YL) PYRIMIDIN-2- AMINE FOR TREATING PROLIFERATIVE DISEASES AND CONDITIONS” (AUCENTRA THERAPEUTICS PTY LTD, priority 2019, published 2024).

Structures are written as SMILES. Where only a bound is given, the exact number is not on record here.

In experiment [1] the test system is MV-4-11. Put plainly: Proliferation assay (resazurin, leukemia cell lines), MV-4-11. Format: cell-based. The settings on record: Homo sapiens, MV4-11, read-out: 72 h Growth inhibition GI50, MV-4-11 cells. An excerpt:
The following compounds were used as comparators.

In experiment [2] the target is CDK2/CyclinA2 (Homo sapiens, UniProt P24941). The experiment can be described thus: ADP Glo kinase assay, CDK2/CyclinA2. It is filed as biochemical. The settings on record: for remaining activity at 1 µM: compound at 1 μM, read-out: Residual enzymatic activity (%) at 1 μM, CDK2 A; for Ki: Km ATP, read-out: Enzymatic inhibition, Ki, CDK2 A. As for the experimental part: (§1) Test compounds are used in 1:3 serial dilutions for 10 concentrations (from 10-0.0005 μM) in 0.5% DMSO. […] The kinase reactions are run for optimised time period at room temperature and then the reaction is stopped by adding 5 μL of ADP Glo reagent.
(In general: ADP-Glo turns the ADP formed in a reaction into a luminescent signal.)

Experiment [3] has as its target CDK4/CyclinD1 (Homo sapiens, UniProt P11802). The experiment can be described thus: ADP Glo kinase assay, CDK4/CyclinD1. It is filed as biochemical. The settings on record: for remaining activity at 1 µM: compound at 1 μM, read-out: Residual enzymatic activity (%) at 1 μM, CDK4 D1; for Ki: Km ATP, read-out: Enzymatic inhibition, Ki, CDK4 D1. As for the experimental part:
as §1

Experiment [4] has as its target CDK7/CyclinH/Mat1 (Homo sapiens, UniProt P50613). The experiment can be described thus: ADP Glo kinase assay, CDK7/CyclinH/Mat1. It is filed as biochemical. The settings on record: for remaining activity at 1 µM: compound at 1 μM, read-out: Residual enzymatic activity (%) at 1 μM, CDK7 H; for Ki: Km ATP, read-out: Enzymatic inhibition, Ki, CDK7 H. As for the experimental part:
as §1

Experiment [5] has as its target CDK1/CyclinB (Homo sapiens, UniProt P06493). Put plainly: ADP Glo kinase assay, CDK1/CyclinB. Format: biochemical. The settings on record: for remaining activity at 1 µM: compound at 1 μM, read-out: Residual enzymatic activity (%) at 1 μM, CDK1 B; for Ki: Km ATP, read-out: Enzymatic inhibition, Ki, CDK1 B. As to the method: as §1
The target of experiment [6] is CDK9/CyclinT1 (Homo sapiens, UniProt P50750). The experiment can be described thus: ADP Glo kinase assay, CDK9/CyclinT1. The settings on record: CDK9/CyclinT1; Km ATP; read-out: Enzymatic inhibition, Ki, CDK9 T1. It is filed as biochemical. As for the experimental part: as §1
Experiment [7] has as its target CDK6/CyclinD3 (Homo sapiens, UniProt Q00534). Put plainly: ADP Glo kinase assay, CDK6/CyclinD3. Format: biochemical. The settings on record: for remaining activity at 1 µM: compound at 1 μM, read-out: Residual enzymatic activity (%) at 1 μM, CDK6 D3; for Ki: Km ATP, read-out: Enzymatic inhibition, Ki, CDK6 D3. As to the method: as §1
Experiment [8] concerns the target T1, FLT3-ITD (Homo sapiens, UniProt P36888).
T1 sequence (P36888 1-993): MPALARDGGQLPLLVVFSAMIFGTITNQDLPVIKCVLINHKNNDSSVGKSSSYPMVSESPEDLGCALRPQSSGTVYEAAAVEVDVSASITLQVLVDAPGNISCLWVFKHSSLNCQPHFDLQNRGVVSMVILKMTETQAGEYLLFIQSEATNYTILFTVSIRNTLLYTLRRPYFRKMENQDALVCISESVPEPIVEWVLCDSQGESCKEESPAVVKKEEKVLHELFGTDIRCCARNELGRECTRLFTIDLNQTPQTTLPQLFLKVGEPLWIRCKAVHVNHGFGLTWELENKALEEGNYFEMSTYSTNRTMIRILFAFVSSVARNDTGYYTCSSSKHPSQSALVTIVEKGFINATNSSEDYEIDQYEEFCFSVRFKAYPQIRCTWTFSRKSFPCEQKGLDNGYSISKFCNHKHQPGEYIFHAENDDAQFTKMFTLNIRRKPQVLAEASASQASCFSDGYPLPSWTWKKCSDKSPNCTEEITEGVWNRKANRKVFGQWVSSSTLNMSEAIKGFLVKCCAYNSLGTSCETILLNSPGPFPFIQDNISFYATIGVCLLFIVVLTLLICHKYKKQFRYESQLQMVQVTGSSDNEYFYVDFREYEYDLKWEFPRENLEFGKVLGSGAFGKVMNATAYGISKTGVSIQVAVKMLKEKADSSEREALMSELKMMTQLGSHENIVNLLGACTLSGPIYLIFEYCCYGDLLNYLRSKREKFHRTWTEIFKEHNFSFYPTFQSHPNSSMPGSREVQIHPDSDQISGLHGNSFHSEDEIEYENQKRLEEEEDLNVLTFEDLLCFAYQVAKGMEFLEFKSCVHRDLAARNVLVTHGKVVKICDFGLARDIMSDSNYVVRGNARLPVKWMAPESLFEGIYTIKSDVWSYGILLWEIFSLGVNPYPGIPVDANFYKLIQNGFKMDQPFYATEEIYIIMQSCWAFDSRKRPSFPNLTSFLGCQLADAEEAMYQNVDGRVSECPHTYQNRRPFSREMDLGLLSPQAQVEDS
The experiment can be described thus: ADP Glo kinase assay, FLT3-ITD. It is filed as biochemical. The settings on record: Km ATP 100 μM, read-out: Enzymatic inhibition, Ki, FLT3-ITD. As to the method:
as §1

In general, GI50 refers to the concentration giving 50% growth inhibition. The term Ki denotes the equilibrium dissociation constant of an inhibitor or competing ligand from its target.

Chain of CDK1/CyclinB (P06493 whole entry, species assumed): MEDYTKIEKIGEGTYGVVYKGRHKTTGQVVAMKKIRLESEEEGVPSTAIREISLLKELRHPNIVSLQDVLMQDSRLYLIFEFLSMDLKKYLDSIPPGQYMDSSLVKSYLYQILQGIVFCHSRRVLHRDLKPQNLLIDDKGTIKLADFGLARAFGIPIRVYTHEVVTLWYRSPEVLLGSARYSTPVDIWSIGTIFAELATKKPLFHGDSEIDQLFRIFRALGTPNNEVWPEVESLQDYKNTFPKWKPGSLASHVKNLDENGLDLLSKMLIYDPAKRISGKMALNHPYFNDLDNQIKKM
Chain of CDK1/CyclinB (P14635 whole entry partner, species assumed): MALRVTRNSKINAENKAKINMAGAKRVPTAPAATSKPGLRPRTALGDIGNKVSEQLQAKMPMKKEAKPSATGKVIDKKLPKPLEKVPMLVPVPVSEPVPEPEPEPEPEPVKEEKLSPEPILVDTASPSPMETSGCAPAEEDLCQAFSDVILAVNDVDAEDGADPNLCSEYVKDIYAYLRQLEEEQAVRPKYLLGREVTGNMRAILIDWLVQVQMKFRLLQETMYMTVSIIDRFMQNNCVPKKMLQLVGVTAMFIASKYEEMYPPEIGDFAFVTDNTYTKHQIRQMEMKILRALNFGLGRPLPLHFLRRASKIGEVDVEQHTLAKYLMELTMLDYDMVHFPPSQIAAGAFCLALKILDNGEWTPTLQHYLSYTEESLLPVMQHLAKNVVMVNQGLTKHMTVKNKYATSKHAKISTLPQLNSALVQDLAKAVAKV
Chain of CDK4/CyclinD1 (P11802 whole entry, species assumed): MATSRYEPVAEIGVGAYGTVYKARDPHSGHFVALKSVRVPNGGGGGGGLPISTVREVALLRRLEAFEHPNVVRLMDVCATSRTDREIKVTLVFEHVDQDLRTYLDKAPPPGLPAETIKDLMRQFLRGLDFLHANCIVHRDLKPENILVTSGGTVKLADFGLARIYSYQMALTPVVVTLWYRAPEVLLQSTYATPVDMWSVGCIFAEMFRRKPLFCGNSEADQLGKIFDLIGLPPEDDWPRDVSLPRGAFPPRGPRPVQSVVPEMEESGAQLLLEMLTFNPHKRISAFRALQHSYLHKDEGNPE
Chain of CDK4/CyclinD1 (P24385 whole entry partner, species assumed): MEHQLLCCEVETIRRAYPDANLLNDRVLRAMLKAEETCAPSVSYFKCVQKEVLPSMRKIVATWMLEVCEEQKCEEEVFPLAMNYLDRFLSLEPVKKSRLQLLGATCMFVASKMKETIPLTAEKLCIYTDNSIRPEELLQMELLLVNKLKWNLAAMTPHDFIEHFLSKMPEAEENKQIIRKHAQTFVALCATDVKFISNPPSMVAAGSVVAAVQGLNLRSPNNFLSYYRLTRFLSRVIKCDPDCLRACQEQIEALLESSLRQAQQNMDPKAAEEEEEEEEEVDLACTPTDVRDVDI
Chain of CDK9/CyclinT1 (P50750 whole entry, species assumed): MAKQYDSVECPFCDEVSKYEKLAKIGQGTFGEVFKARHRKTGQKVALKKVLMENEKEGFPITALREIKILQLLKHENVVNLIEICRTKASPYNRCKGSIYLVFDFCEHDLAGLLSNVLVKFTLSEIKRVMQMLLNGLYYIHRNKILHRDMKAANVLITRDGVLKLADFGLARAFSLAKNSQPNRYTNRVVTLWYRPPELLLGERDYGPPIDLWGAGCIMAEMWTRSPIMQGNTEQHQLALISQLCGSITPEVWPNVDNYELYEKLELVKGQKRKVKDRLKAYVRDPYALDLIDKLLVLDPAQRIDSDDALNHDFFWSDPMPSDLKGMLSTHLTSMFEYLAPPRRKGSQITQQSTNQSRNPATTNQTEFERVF
Chain of CDK9/CyclinT1 (O60563 whole entry partner, species assumed): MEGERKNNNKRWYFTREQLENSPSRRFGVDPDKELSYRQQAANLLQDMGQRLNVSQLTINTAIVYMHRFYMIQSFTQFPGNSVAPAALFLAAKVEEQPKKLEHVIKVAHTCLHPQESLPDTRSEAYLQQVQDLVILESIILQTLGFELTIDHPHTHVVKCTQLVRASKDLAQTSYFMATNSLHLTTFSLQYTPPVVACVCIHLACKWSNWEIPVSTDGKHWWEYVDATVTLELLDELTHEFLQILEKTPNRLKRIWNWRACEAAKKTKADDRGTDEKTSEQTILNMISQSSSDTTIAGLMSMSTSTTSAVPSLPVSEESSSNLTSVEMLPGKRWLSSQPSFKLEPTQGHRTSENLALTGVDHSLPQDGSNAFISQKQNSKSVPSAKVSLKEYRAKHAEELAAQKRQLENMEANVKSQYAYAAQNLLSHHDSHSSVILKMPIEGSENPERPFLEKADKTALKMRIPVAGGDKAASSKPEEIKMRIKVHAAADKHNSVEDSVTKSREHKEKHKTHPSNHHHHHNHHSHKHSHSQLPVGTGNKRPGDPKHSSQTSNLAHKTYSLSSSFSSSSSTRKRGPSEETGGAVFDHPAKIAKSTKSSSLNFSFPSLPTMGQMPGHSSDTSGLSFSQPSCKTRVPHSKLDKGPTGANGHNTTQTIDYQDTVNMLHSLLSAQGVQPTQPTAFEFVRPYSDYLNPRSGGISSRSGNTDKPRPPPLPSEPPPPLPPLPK
Chain of CDK6/CyclinD3 (Q00534 whole entry, species assumed): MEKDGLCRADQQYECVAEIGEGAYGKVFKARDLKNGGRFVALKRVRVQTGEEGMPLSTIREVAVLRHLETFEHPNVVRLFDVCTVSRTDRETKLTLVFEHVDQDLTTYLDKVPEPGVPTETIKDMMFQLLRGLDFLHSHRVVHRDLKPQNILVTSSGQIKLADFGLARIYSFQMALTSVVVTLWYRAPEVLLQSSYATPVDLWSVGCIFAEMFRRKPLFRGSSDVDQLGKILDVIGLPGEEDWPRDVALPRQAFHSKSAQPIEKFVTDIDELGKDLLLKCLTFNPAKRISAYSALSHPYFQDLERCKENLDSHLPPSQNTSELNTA
Chain of CDK6/CyclinD3 (P30281 whole entry partner, species assumed): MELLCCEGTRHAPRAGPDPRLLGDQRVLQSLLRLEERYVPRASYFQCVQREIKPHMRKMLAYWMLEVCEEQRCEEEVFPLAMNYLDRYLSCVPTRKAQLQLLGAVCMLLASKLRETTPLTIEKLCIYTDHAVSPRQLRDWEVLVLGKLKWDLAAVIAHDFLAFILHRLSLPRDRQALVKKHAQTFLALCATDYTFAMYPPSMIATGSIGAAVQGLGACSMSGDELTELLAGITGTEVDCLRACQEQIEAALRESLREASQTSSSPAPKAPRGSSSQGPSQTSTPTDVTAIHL
Chain of CDK7/CyclinH/Mat1 (P50613 whole entry, species assumed): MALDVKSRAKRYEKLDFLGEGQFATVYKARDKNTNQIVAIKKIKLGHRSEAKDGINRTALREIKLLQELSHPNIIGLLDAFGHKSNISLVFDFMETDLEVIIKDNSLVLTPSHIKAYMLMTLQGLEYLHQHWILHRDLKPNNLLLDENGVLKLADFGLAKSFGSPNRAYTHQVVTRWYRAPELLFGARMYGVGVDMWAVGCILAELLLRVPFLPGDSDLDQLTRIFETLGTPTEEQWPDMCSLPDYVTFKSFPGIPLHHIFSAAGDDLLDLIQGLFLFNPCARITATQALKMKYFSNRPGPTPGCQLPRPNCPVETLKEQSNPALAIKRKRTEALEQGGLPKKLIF
Chain of CDK7/CyclinH/Mat1 (P51946 whole entry partner, species assumed): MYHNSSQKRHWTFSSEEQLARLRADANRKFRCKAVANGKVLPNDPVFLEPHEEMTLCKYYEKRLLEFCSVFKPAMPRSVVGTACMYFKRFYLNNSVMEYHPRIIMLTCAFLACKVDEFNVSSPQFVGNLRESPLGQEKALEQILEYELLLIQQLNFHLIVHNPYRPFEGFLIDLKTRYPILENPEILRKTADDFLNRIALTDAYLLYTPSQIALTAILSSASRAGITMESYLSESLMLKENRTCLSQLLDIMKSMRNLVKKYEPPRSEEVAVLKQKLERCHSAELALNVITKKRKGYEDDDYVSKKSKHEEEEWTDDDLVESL
Chain of CDK7/CyclinH/Mat1 (P51948 whole entry partner, species assumed): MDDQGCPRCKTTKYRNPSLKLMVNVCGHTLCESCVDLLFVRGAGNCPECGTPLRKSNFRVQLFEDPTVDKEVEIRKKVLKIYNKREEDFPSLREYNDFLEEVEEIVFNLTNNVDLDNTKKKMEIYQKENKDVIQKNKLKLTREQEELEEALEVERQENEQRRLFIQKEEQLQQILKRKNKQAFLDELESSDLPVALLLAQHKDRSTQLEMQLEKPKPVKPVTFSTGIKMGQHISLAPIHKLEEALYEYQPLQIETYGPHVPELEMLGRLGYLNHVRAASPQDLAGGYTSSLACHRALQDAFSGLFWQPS

For the compound `CN1CCN(c2ccc(Nc3nccc(-c4cnc5ccc(-c6cnn(C)c6)cn45)n3)nc2)CC1` [Comparator compound B, 4-(6-(1-methyl-1H-pyrazol-4-yl)imidazo[1,2-a]pyridin-3-yl)-N-(5-(4-methylpiperazin-1-yl)pyridin-2-yl)pyrimidin-2-amine, reference compound], in experiment [1], the GI50 was 7 nM. The remaining activity at 1 µM in experiment [2] turned out to be 99%; in experiment [3], 76%; in experiment [4], 70%; in experiment [5] it was 98%; in experiment [7], 87%. The inhibitory constant (Ki) in experiment [6] is greater than 500 nM.
Consider `CN1CCN(c2ccc(Nc3nccc(-c4cnc5ccc(-c6cccnc6)cn45)n3)nc2)CC1` [Comparator compound C, N-(5-(4-methylpiperazin-1-yl)pyridin-2-yl)-4-(6-(pyridin-3-yl)imidazo[1,2-a]pyridin-3-yl)pyrimidin-2-amine, reference compound], for which the remaining activity at 1 µM in experiment [2] is 94%; in experiment [3], 76%; in experiment [4] it was 75%; in experiment [5], 67%; in experiment [7] it was 87%. Besides, the Ki in experiment [6] turned out to be 140 nM.
With `CN1CCN(c2ccc(Nc3nccc(-c4cnc5ccccn45)n3)cn2)CC1` [Compound 1, 4-(Imidazo[1,2-a]pyridin-3-yl)-N-(6-(4-methylpiperazin-1-yl)pyridin-3-yl)pyrimidin-2-amine], the Ki in experiment [8] turned out to be 2 nM; in experiment [2], 59 nM; in experiment [3], 8 nM; in experiment [4] it was 1090 nM; in experiment [5], 141 nM; in experiment [6] it was 2 nM. The Ki in experiment [7] is 43 nM. In experiment [1], the GI50 came out at 1 nM.
Consider `Cc1nc2ccc(F)cn2c1-c1ccnc(Nc2ccc(N3CCN(C)CC3)nc2)n1` [Compound 2, 4-(6-Fluoro-2-methylimidazo[1,2-a]pyridin-3-yl)-N-(6-(4-methylpiperazin-1-yl)pyridin-3-yl)pyrimidin-2-amine], for which the Ki amounted to 3 nM in experiment [8]; 63 nM in experiment [2]; 55 nM in experiment [3]; 560 nM in experiment [4]; 152 nM in experiment [5]; 168 nM in experiment [6]. Also, in experiment [7], the Ki amounted to 54 nM. In experiment [1], the GI50 came out at 78 nM.
Turning to `Cc1cnc(Nc2ccc(N3CCN(C)CC3)nc2)nc1-c1cnc2ccccn12` [Compound 3, 4-(Imidazo[1,2-a]pyridin-3-yl)-5-methyl-N-(6-(4-methylpiperazin-1-yl)pyridin-3-yl) pyrimidin-2-amine], the Ki in experiment [8] was 9 nM; in experiment [2], 83 nM; in experiment [3], 46 nM; in experiment [4], 2900 nM; in experiment [5], 505 nM; in experiment [6] it was 136 nM. Also, the Ki in experiment [7] stood at 522 nM. The GI50 in experiment [1] was 32 nM.
Regarding `Fc1cnc(Nc2cccnc2)nc1-c1cnc2ccccn12` [Compound 4, 5-Fluoro-4-(imidazo[1,2-a]pyridin-3-yl)-N-(pyridin-3-yl)pyrimidin-2-amine], the Ki was 224 nM in experiment [8]; 1 nM in experiment [2]; 74 nM in experiment [3]; 2540 nM in experiment [4]; 2 nM in experiment [5]; 41 nM in experiment [6]. Besides, the Ki in experiment [7] stood at 2900 nM. Moreover, the GI50 in experiment [1] came to 57 nM.
With `CN1CCN(c2ccc(Nc3nccc(-c4cnc5ccc(Br)cn45)n3)cn2)CC1` [Compound 5, 4-(6-Bromoimidazo[1,2-a]pyridin-3-yl)-N-(6-(4-methylpiperazin-1-yl)pyridin-3-yl)pyrimidin-2-amine], the Ki in experiment [8] was 79 nM; in experiment [2] it was 98 nM; in experiment [3] it was 712 nM; in experiment [4], 2360 nM; in experiment [5] it was 317 nM; in experiment [6], 5 nM. The inhibition constant (Ki) in experiment [7] amounted to 716 nM. Besides, in experiment [1], the GI50 turned out to be 7 nM.
